Reference: patent publication US8247458B2, “Therapeutic agent for diabetic neuropathy” (Taiho Pharmaceutical Co., Ltd., priority 2006, dated 2012)

Tested on: diabetes model rats induced by STZ
Assay: von Frey test in streptozotocin-induced diabetic neuropathy model rats
Assay type: in vivo, rat
Conditions: vs STZ control group; for suppression effect of neuropathy (pain threshold, von Frey test): p value under 0.001%; for analgesic effect (pain threshold, threshold of the escape reaction of limb, von Frey test): first day of the measurement (first dose)
Method: By use of male rats with the weight of more than 160 g, 50 mg/kg of streptozotocin (STZ, Sigma-Aldrich Co.) was administered thereto intravenously at the dose of 2 mL/kg to prepare the diabetes model rats induced by STZ (Malcangio M. et al., Pain, 1998). Animals with the blood sugar level of more than 200 mg/dL were adopted as diabetes models. For the measurements of the blood sugar level, the blood (2 μL) collected from the tail vein was measured by use of a measurement chip (Glutest Sensor, Arkray, Inc.) and a portable instrument for measuring blood sugar of Glutest PRO R (Model GT-1661, Arkray, Inc.).
The pain threshold was measured by carrying out the von Frey test on both right and left foot pats of the rats by use of Dynamic Planter Aesthesiometer (Model No. 37400, Ugo Basile, Inc.), and its maximum pressure was set to be 30.0 g, and the arriving time to the maximum pressure was set to be 40 seconds. Eight days after the administration of STZ, the individuals with the pain threshold of higher than a certain level were selected and divided into the groups so that the measured pain thresholds might become even in each group. To the diabetes model rats induced by STZ was administered continuously for one week either 30 mg/kg of suplatast tosylate intraperitoneally or 100 mg/kg of the same orally, and the intraperitoneally administered group and the orally administered group were produced respectively. The diabetes model rats induced by STZ to which solvent (distilled water) was administered orally were designated to the STZ control group. Moreover, the animals of no treatment, i.e. no administration of STZ, to which solvent (distilled water) was administered orally were used as the normal control group. On the 1st, 4th and 7th days after the administration, were measured the pain thresholds of the right and left foot pats for each of the group (8 rats/group), and the analgesic effect was estimated by the threshold of the escape reaction of limb (the total of pain threshold value both of the right and left foot pats). The pain thresholds were measured from 1 to 1.5 hours after the administration, respectively. The Student's test, which is a test for every 2 groups, was applied to the significant difference test of the average value, and the significant level were shown by the following indications:
## (Normal control group vs. STZ control group): p value under 0.001%, and
** (STZ control group vs. orally administered group or intraperitoneally administered group): p value under 0.001%
The orally administered group and the intraperitoneally administered group were compared with the STZ control groups, respectively. Moreover, the STZ control groups were compared with the normal control groups, and the establishments of the diabetes neuropathy model were respectively judged.

Q: `CCOCC(O)COc1ccc(NC(=O)CC[S+](C)C)cc1.Cc1ccc(S(=O)(=O)[O-])cc1` (racemic) [suplatast tosylate, (±)-[2-[4-(3-Ethoxy-2-hydroxypropoxy)phenylcarbamoyl]-ethyl]dimethylsulfonium p-toluenesulfonate] was tested. Which “suppression effect of neuropathy (pain threshold, von Frey test)” value (“suppression effect of neuropathy” below) (30 mg/kg intraperitoneal daily, 4th day) did it give?
A: significant suppression effects of neuropathy

Q: And the “suppression effect of neuropathy” value (30 mg/kg intraperitoneal daily, 7th day)?
A: significant suppression effects of neuropathy

Q: What about the “analgesic effect (pain threshold, threshold of the escape reaction of limb, von Frey test)” value (30 mg/kg intraperitoneal) of the same compound?
A: analgesic effects were not found

Q: And the “suppression effect of neuropathy” value (100 mg/kg oral daily, 4th day)?
A: significant suppression effects of neuropathy

Q: What about the “suppression effect of neuropathy” value (100 mg/kg oral daily, 7th day) of the same compound?
A: significant suppression effects of neuropathy

Q: What about the “analgesic effect (pain threshold, threshold of the escape reaction of limb, von Frey test)” value (100 mg/kg oral) of the same compound?
A: analgesic effects were not found
